From US10280164B2, “Pyrazolopyridone compounds and uses thereof” (Incyte Corporation, priority 2016, dated 2019)

Target: HPK1 (Homo sapiens (Human), UniProt Q92918)
Experiment: HPK1 Kinase Binding Assay (LanthaScreen Eu-Anti GST antibody / tracer 222)
Conditions: active HPK1 (SignalChem M23-11G), tracer 222, one hour incubation at 25° C.
Description: A stock solution of 1 mM test compound was prepared in DMSO. The compound plate was prepared by 3-fold and 11-point serial dilutions. 0.1 μL of the compound in DMSO was transferred from the compound plate to the white 384 well polystyrene plates. The assay buffer contained 50 mM HEPES, pH 7.5, 0.01% Tween-20, 5 mM MgCl2, 0.01% BSA, and 5 mM DTT. 5 μl of 4 nM active HPK1 (SignalChem M23-11G) prepared in the buffer was added to the plate. The enzyme concentration given was based on the given stock concentration reported by the vender. 5 μl of 18 nM tracer 222 (ThermoFisher PV6121) and 4 nM LanthaScreen Eu-Anti GST antibody (ThermoFisher PV5595) were added. After one hour incubation at 25° C., the plates were read on a PHERAstar FS plate reader (BMG Labtech). Ki values were determined.

Sequence of HPK1 (Q92918 1-346): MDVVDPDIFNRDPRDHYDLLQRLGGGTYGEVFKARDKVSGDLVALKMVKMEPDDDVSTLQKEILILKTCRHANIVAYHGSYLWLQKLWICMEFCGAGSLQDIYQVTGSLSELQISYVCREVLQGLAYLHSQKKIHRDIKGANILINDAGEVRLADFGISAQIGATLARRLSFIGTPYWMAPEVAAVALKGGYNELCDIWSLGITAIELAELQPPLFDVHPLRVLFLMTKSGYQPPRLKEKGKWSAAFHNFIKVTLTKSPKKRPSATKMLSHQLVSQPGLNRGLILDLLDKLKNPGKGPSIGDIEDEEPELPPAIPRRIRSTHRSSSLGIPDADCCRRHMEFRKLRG

SMILES	Ki [µM]
CN1CCN(c2ccc(-c3n[nH]c4cc(=O)n(C5CCOC5)cc34)cc2)CC1 (stereo not shown) [Example 10, 3-[4-(4-Methylpiperazin-1-yl)phenyl]-5-(tetrahydrofuran-3-yl)-1,5-dihydro-6H-pyrazolo[4,3-c]pyridin-6-one]	0.5 to 3
COc1ccccc1-n1cc2c(-c3ccc(N4CCN(C)CC4)cc3)n[nH]c2cc1=O [Example 4, 5-(2-Methoxyphenyl)-3-[4-(4-methylpiperazin-1-yl)phenyl]-1,5-dihydro-6H-pyrazolo[4,3-c]pyridin-6-one]	≤ 0.1
CC1OCCCC1n1cc2c(-c3ccc(N4CCN(C)CC4)cc3)n[nH]c2cc1=O (stereo not shown) [Example 16, 3-[4-(4-Methylpiperazin-1-yl)phenyl]-5-(2-methyltetrahydro-2H-pyran-3-yl)-1,5-dihydro-6H-pyrazolo[4,3-c]pyridin-6-one]	0.1 to 0.5
CN1CCN(c2ccc(-c3n[nH]c4cc(=O)n(-c5ccccc5)cc34)cc2)CC1 [Example 1, 3-[4-(4-Methylpiperazin-1-yl)phenyl]-5-phenyl-1,5-dihydro-6H-pyrazolo[4,3-c]pyridin-6-one]	0.1 to 0.5
CN1CCN(c2ccc(-c3n[nH]c4cc(=O)n(CC5CCCCC5)cc34)cc2)CC1 [Example 12, 5-(Cyclohexylmethyl)-3-[4-(4-methylpiperazin-1-yl)phenyl]-1,5-dihydro-6H-pyrazolo[4,3-c]pyridin-6-one]	0.1 to 0.5
CC(c1ccccc1C(F)(F)F)n1cc2c(-c3ccc(N4CCN(C)CC4)cc3)n[nH]c2cc1=O (stereo not shown) [Example 13, 3-[4-(4-Methylpiperazin-1-yl)phenyl]-5-{1-[2-(trifluoromethyl)phenyl]ethyl}-1,5-dihydro-6H-pyrazolo[4,3-c]pyridin-6-one]	≤ 0.1
CN1CCN(c2ccc(-c3n[nH]c4cc(=O)n(C5CCCCC5)cc34)cc2)CC1 [Example 9, 5-Cyclohexyl-3-[4-(4-methylpiperazin-1-yl)phenyl]-1,5-dihydro-6H-pyrazolo[4,3-c]pyridin-6-one]	0.1 to 0.5
CN1CCN(c2ccc(-c3n[nH]c4cc(=O)n(Cc5ccccc5)cc34)cc2)CC1 [Example 11, 5-Benzyl-3-[4-(4-methylpiperazin-1-yl)phenyl]-1,5-dihydro-6H-pyrazolo[4,3-c]pyridin-6-one]	0.1 to 0.5

The remaining lines, values ahead:

Ki [µM]	SMILES
≤ 0.1	CN1CCN(c2ccc(-c3n[nH]c4cc(=O)n(-c5cccc6c5OCCO6)cc34)cc2)CC1 [Example 7, 5-(2,3-Dihydrobenzo[b][1,4]dioxin-5-yl)-3-[4-(4-methylpiperazin-1-yl)phenyl]-1,5-dihydro-6H-pyrazolo[4,3-c]pyridin-6-one]
≤ 0.1	CN1CCN(c2ccc(-c3n[nH]c4cc(=O)n(-c5ccccc5F)cc34)cc2)CC1 [Example 2, 5-(2-Fluorophenyl)-3-[4-(4-methylpiperazin-1-yl)phenyl]-1,5-dihydro-6H-pyrazolo[4,3-c]pyridin-6-one]
≤ 0.1	COc1cccc(F)c1-n1cc2c(-c3ccc(N4CCN(C)CC4)cc3)n[nH]c2cc1=O [Example 5, 5-(2-Fluoro-6-methoxyphenyl)-3-[4-(4-methylpiperazin-1-yl)phenyl]-1,5-dihydro-6H-pyrazolo[4,3-c]pyridin-6-one]
≤ 0.1	Cc1ccccc1-n1cc2c(-c3ccc(N4CCN(C)CC4)cc3)n[nH]c2cc1=O [Example 3, 3-[4-(4-Methylpiperazin-1-yl)phenyl]-5-(o-tolyl)-1,5-dihydro-6H-pyrazolo[4,3-c]pyridin-6-one]
≤ 0.1	CC(c1ccccc1)n1cc2c(-c3ccc(N4CCN(C)CC4)cc3)n[nH]c2cc1=O (stereo not shown) [Example 14, 3-[4-(4-Methylpiperazin-1-yl)phenyl]-5-(1-phenylethyl)-1,5-dihydro-6H-pyrazolo[4,3-c]pyridin-6-one]
≤ 0.1	CN1CCN(c2ccc(-c3n[nH]c4cc(=O)n(-c5cccc6c5CCNC6)cc34)cc2)CC1 [Example 6, 3-[4-(4-Methylpiperazin-1-yl)phenyl]-5-(1,2,3,4-tetrahydroisoquinolin-5-yl)-1,5-dihydro-6H-pyrazolo[4,3-c]pyridin-6-one]
≤ 0.1	CN1CCN(c2ccc(-c3n[nH]c4cc(=O)n(-c5ncccc5F)cc34)cc2)CC1 [Example 8, 5-(3-Fluoropyridin-2-yl)-3-[4-(4-methylpiperazin-1-yl)phenyl]-1,5-dihydro-6H-pyrazolo[4,3-c]pyridin-6-one]
0.5 to 3	CN1CCN(c2ccc(-c3n[nH]c4cc(=O)n(C5CCN(C)C5=O)cc34)cc2)CC1 (stereo not shown) [Example 15, 5-(1-Methyl-2-oxopyrrolidin-3-yl)-3-[4-(4-methylpiperazin-1-yl)phenyl]-1,5-dihydro-6H-pyrazolo[4,3-c]pyridin-6-one]
